Assay results taken from patent US12077503B2, “Substituted cyclic amides and their use as herbicides” (FMC CORPORATION, priority 2015, dated 2024).

What was measured:
Type in all cases: in vivo
Kochia (Kochia scoparia) [1] = test: Test A preemergence; conditions: Bassia scoparia, pre-emergence, 240 h, read-out: Plant response rating, Kochia
Summary of the method: (§1)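 Ratings of 0 (no effect) to 100 (complete control) come from visual comparison with untreated controls roughly 10 d after treatment. Test chemicals, formulated in a non-phytotoxic solvent mixture with surfactant, were applied either as a preemergence directed soil spray on seeded soil or postemergence to one- to two-leaf plants 2 to 10 cm tall.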

[2] = test system: barnyardgrass (Echinochloa crus-galli); test: Test A preemergence; conditions: Echinochloa crus-galli, pre-emergence, 240 h, read-out: Plant response rating, Barnyardgrass
Summary of the method: as §1

[3] = test system: giant foxtail (Setaria faberii); test: Test A preemergence; conditions: Setaria faberi, pre-emergence, 240 h, read-out: Plant response rating, Foxtail, Giant
Summary of the method: as §1

[4] = test system: pigweed (Amaranthus retroflexus); test: Test A preemergence; conditions: Amaranthus retroflexus, pre-emergence, 240 h, read-out: Plant response rating, Pigweed
[5] = test system: ragweed (common ragweed, Ambrosia elatior); test: Test A preemergence; conditions: Ambrosia artemisiifolia, pre-emergence, 240 h, read-out: Plant response rating, Ragweed
Summary of the method: as §1

[6] = test system: ryegrass, Italian (Italian ryegrass, Lolium multiflorum); test: Test A preemergence; conditions: Lolium multiflorum, pre-emergence, 240 h, read-out: Plant response rating, Ryegrass, Italian
Summary of the method: as §1

[7] = test system: Galium (catchweed bedstraw, Galium aparine); test: Test A postemergence; conditions: Galium, post-emergence, 240 h, read-out: Plant response rating, Galium
Summary of the method: as §1

Kochia (Kochia scoparia) [8] = test: Test A postemergence; conditions: Bassia scoparia, post-emergence, 240 h, read-out: Plant response rating, Kochia
Summary of the method: as §1

[9] = test system: barnyardgrass (Echinochloa crus-galli); test: Test A postemergence; conditions: Echinochloa crus-galli, post-emergence, 240 h, read-out: Plant response rating, Barnyardgrass
Summary of the method: as §1

[10] = test system: blackgrass (Alopecurus myosuroides); test: Test A postemergence; conditions: Alopecurus myosuroides, post-emergence, 240 h, read-out: Plant response rating, Blackgrass
Summary of the method: as §1

corn (Zea mays) = test: Test A postemergence; conditions: Zea mays, post-emergence, 240 h
Summary of the method: as §1

[11] = test system: giant foxtail (Setaria faberii); test: Test A postemergence; conditions: Setaria faberi, post-emergence, 240 h, read-out: Plant response rating, Foxtail, Giant
Summary of the method: as §1

[12] = test system: pigweed (Amaranthus retroflexus); test: Test A postemergence; conditions: Amaranthus retroflexus, post-emergence, 240 h, read-out: Plant response rating, Pigweed
Summary of the method: as §1

[13] = test system: ragweed (common ragweed, Ambrosia elatior); test: Test A postemergence; conditions: Ambrosia artemisiifolia, post-emergence, 240 h, read-out: Plant response rating, Ragweed
Summary of the method: as §1

[14] = test system: ryegrass, Italian (Italian ryegrass, Lolium multiflorum); test: Test A postemergence; conditions: Lolium multiflorum, post-emergence, 240 h, read-out: Plant response rating, Ryegrass, Italian
Summary of the method: as §1

[15] = test system: wheat (Triticum aestivum); test: Test A postemergence; conditions: Triticum aestivum, post-emergence, 240 h, read-out: Plant response rating, Wheat
Summary of the method: as §1

[16] = 125 g ai/ha, Preemergence, visual injury after approximately 10 d, 0 to 100 scale where 0 is no effect and 100 is complete control
[17] = 500 g ai/ha, preemergence, 0 to 100 scale, 0 = no effect, 100 = complete control
[18] = 125 g ai/ha, postemergence, visual rating after approx. 10 d, 0 to 100 scale (0 no effect, 100 complete control)
[19] = Postemergence, 500 g ai/ha, 0 to 100 scale where 0 is no effect and 100 is complete control

CN1C[C@H](c2ccc(C(F)(F)F)cc2)[C@@H](C(=O)Nc2cccc(F)c2F)C1=O [Compound 623, (3S,4S)—N-(2,3-difluorophenyl)-1-methyl-2-oxo-4-[4-(trifluoromethyl)phenyl]-3-pyrrolidinecarboxamide]
pest or weed control at 125 g/ha (Kochia (Kochia scoparia) [1]; [16]): 60% | pest or weed control at 500 g/ha (Kochia (Kochia scoparia) [1]; [17]): 70% | pest or weed control at 125 g/ha [2, 16]: 90% | pest or weed control at 500 g/ha [2, 17]: 90% | pest or weed control at 125 g/ha [3, 16]: 90% | pest or weed control at 500 g/ha [3, 17]: 90% | pest or weed control at 125 g/ha [4, 16]: 80% | pest or weed control at 500 g/ha [4, 17]: 80% | pest or weed control at 125 g/ha [5, 16]: 80% | pest or weed control at 500 g/ha [5, 17]: 80% | pest or weed control at 125 g/ha [6, 16]: 80% | pest or weed control at 500 g/ha [6, 17]: 90% | pest or weed control at 125 g/ha [7, 18]: 50% | pest or weed control at 500 g/ha [7, 19]: 60% | pest or weed control at 125 g/ha (Kochia (Kochia scoparia) [8]; [18]): 40% | pest or weed control at 500 g/ha (Kochia (Kochia scoparia) [8]; [19]): 70% | pest or weed control at 125 g/ha [9, 18]: 90% | pest or weed control at 500 g/ha [9, 19]: 90% | pest or weed control at 125 g/ha [10, 18]: 50% | pest or weed control at 500 g/ha [10, 19]: 60% | Corn plant response rating (crop injury, 0 = no effect, 100 = complete kill) at 125 g/ha (corn (Zea mays); [18]): 60% | Corn plant response rating (crop injury, 0 = no effect, 100 = complete kill) at 500 g/ha (corn (Zea mays); [19]): 70% | pest or weed control at 125 g/ha [11, 18]: 90% | pest or weed control at 500 g/ha [11, 19]: 90% | pest or weed control at 125 g/ha [12, 18]: 60% | pest or weed control at 500 g/ha [12, 19]: 60% | pest or weed control at 125 g/ha [13, 18]: 20% | pest or weed control at 500 g/ha [13, 19]: 0% | pest or weed control at 125 g/ha [14, 18]: 30% | pest or weed control at 500 g/ha [14, 19]: 60% | plant injury at 125 g/ha [15, 18]: 40% | plant injury at 500 g/ha [15, 19]: 70%
